Test results from patent publication US20260200980A1, “METHODS AND COMPOSITIONS FOR TREATING OCULAR LESIONS” (priority 2022, published 2026).
Values joined by “and” are separate entries in the source; they are usually repeats but may differ in a detail not shown here. Equal entries are not always repeated. Where two headings read alike, the source gives them in different places. Where no end group is shown, it is not given here.

How the values were obtained:
ocular lesion [1] = assay: Lesion size in patients 24 weeks after intravitreal ONL1204; format: in vivo, human; details: for % Change in Lesion Growth: week 24, study eye relative to untreated fellow eye; for % Change Based on Sqrt Transformation / Baseline Lesion Size / Week 24 Lesion Size: study eye; for % Change Based on Sqrt Transformation: baseline to week 24, square root of lesion area; for Baseline Lesion Size: baseline prior to treatment
Method: The primary endpoints were the safety profile associated with single and multiple dosing in this study, including: adverse event reporting, clinical evaluations including lesion size and clinical evaluation.
Baseline best lesion size (area in square millimeters) was measured prior to treatment with ONL1204. […] The following doses were evaluated: 50 ug, 100 ug, and 200 ug (micrograms).
(§1) Table 1A and 1B show reduced lesion sizes associated with treated eyes at week 24. Percent (%) change is measured relative the untreated fellow eye. […] Table 3A, 3B and 3C show reduced lesion sizes associated with treated eyes (Tables 3A and 3C) in addition to associated historical lesion growth (Tables 3A and 3B). […] For “% Change Based on Sqrt Transformation” and similar measures, the square root of the lesion area was determined and the % difference between the starting value and the last timepoint was calculated. Percent (%) change is measured relative the untreated fellow eye.

visual function = assay: ETDRS Vision (Letters Read), BCVA, in patients treated with ONL1204; format: in vivo, human
ocular lesion [2] = assay: Lesion size in historical (V1-V3) and treatment phase (V3-V9), 2 injections of ONL1204 3 months apart; format: in vivo, human; details: for % Change Nat His Phase (Using Sqrt Transformation): V1 to V3, 24 weeks before treatment; for % Change Tx Phase (Using Sqrt Transformation) / V1 Lesion Size / V3 Lesion Size / V9 Lesion Size: study eye; for % Change Tx Phase (Using Sqrt Transformation): V3 to V9, 24 weeks; for % Change Tx Phase (Using Sqrt Transformation) / V9 Lesion Size: 2 injections 3 months apart; for V1 Lesion Size: visit 1, start of historical phase, before treatment; for V3 Lesion Size: visit 3, end of historical phase, start of treatment; for V9 Lesion Size: visit 9, 24 weeks after first treatment
Method: as §1

male rabbit NaIO3 model = assay: Sodium iodate (NaIO3) challenge study, duration of protection; format: in vivo; details: for lesion area vs negative control: NaIO3 challenge Day 4
Method: Animals were anesthetized with isoflurane vapors to effect. […] No reflux was noted on the dosing record.
Animals were anesthetized with isoflurane vapors to effect. […] NaIO3 causes one or more regions of atrophy and depigmentation which creates a window into the choroid.
The resulting area was then measured.

[3] = rabbit, in vivo
Method: Pharmacokinetic analyses were performed on the vitreous humor concentration data.
Seven animals received a repeat IVT dose at 2 mg/mL (0.1 mg/eye) on Day 90.
Vitreous humor, retina, and choroid were collected on days 1, 7, 14, 28, 42, 61, 90, 97, 151, and 168. Eyes were enucleated, snap frozen using liquid nitrogen, and kept on dry ice or frozen at −80° C. until dissected for collection of aqueous humor, vitreous humor, retina, choroid, iris-ciliary body (ICB), and lens.
To homogenize ocular tissue samples, weighed amounts of control bovine vitreous humor, retina, and choroid were homogenized in USA scientific impact resistant microtubes containing 2.8 mm ceramic beads. Unknown rabbit vitreous humor, retina, and choroid samples were homogenized in USA scientific impact resistant microtubes containing 2.8 mm ceramic beads. […]

[4] = minipig, in vivo
Method: Seven animals received a repeat IVT dose at 2 mg/mL (0.1 mg/eye) on Day 90. […] Vitreous humor, retina, and choroid were collected on days 1, 7, 14, 28, and 88.

HHIYLGAVNYIY-NH2 [ONL1204]
% Change in Lesion Growth (ocular lesion [1]; 50 ug): −45%
% Change in Lesion Growth (ocular lesion [1]; 100 ug): −27% and −32%
% Change in Lesion Growth (ocular lesion [1]; 200 ug): −57% and −53%
lesion size growth (ocular lesion [1]; all patients, doses 50, 100 and 200 ug, compared to untreated fellow eye): reduction in lesion size growth
% Change Based on Sqrt Transformation (ocular lesion [1]; 50 ug): 4.14% and 6.95%
Baseline Lesion Size (ocular lesion [1]; 100 ug intravitreal): 20.1 mm^2 and 24.16 mm^2
Week 24 Lesion Size (ocular lesion [1]; 100 ug intravitreal): 21.2 mm2 and 27.61 mm2
% Change Based on Sqrt Transformation (ocular lesion [1]; 100 ug): 2.70% and 6.90%
Baseline Lesion Size (ocular lesion [1]; 200 ug intravitreal): 9.37 mm^2 and 9.09 mm^2
Week 24 Lesion Size (ocular lesion [1]; 200 ug intravitreal): 9.81 mm2 and 9.78 mm2
% Change Based on Sqrt Transformation (ocular lesion [1]; 200 ug): 2.32% and 3.73%
visual function (e.g., BCVA as measured by letters read) (visual function; eyes having a patchy lesion): improved visual function
ETDRS Vision (Letters Read) Week 1 (visual function; study eye, 50 μg): 42 Letters Read and 33 Letters Read
ETDRS Vision (Letters Read) Week 2 (visual function; study eye, 50 μg): 34 Letters Read and 33 Letters Read
ETDRS Vision (Letters Read) Week 4 (visual function; study eye, 50 μg): 36 Letters Read and 33 Letters Read
ETDRS Vision (Letters Read) Week 12 (visual function; study eye, 50 μg): 36 Letters Read
ETDRS Vision (Letters Read) Week 24 (visual function; study eye, 50 μg): 42 Letters Read and 35 Letters Read
ETDRS Vision (Letters Read) Screening/Baseline (visual function; study eye, 50 μg, before treatment): 23 Letters Read and 26 Letters Read
ETDRS Vision (Letters Read) Week 1 (visual function; study eye, 100 μg): 13 Letters Read
ETDRS Vision (Letters Read) Week 2 (visual function; study eye, 100 μg): 13 Letters Read and 19 Letters Read
ETDRS Vision (Letters Read) Week 12 (visual function; study eye, 100 μg): 15 Letters Read and 27 Letters Read
ETDRS Vision (Letters Read) Week 24 (visual function; study eye, 100 μg): 15 Letters Read and 24 Letters Read
ETDRS Vision (Letters Read) Screening/Baseline (visual function; study eye, 100 μg, before treatment): 14 Letters Read and 11 Letters Read
ETDRS Vision (Letters Read) Week 1 (visual function; study eye, 200 μg): 29 Letters Read and 31 Letters Read
ETDRS Vision (Letters Read) Week 2 (visual function; study eye, 200 μg): 32 Letters Read and 30 Letters Read
ETDRS Vision (Letters Read) Week 4 (visual function; study eye, 200 μg): 30 Letters Read and 38 Letters Read
ETDRS Vision (Letters Read) Week 12 (visual function; study eye, 200 μg): 28 Letters Read and 41 Letters Read
ETDRS Vision (Letters Read) Week 24 (visual function; study eye, 200 μg): 26 Letters Read and 40 Letters Read
ETDRS Vision (Letters Read) Baseline (visual function; study eye, 200 μg, baseline visit, on a different day from screening, before treatment): 25 Letters Read
ETDRS Vision (Letters Read) Screening/Baseline (visual function; study eye, 200 μg, before treatment): 39 Letters Read
ETDRS Vision (Letters Read) Screening (visual function; study eye, 200 μg, screening visit, on a different day from baseline, before treatment): 19 Letters Read
% Change Nat His Phase (Using Sqrt Transformation) (ocular lesion [2]; study eye later given 50 ug): 5.31% and 1.38%
% Change Nat His Phase (Using Sqrt Transformation) (ocular lesion [2]; study eye later given 100 ug): 2.97% and 3.20%
% Change Tx Phase (Using Sqrt Transformation) (ocular lesion [2]; 50 ug): 3.74% and 0.05%
V1 Lesion Size (ocular lesion [2]; 50 ug): 12.08 mm^2 and 18.41 mm^2
V3 Lesion Size (ocular lesion [2]; 50 ug): 13.4 mm^2 and 18.92 mm^2
V9 Lesion Size (ocular lesion [2]; 50 ug): 14.42 mm^2 and 18.94 mm^2
% Change Tx Phase (Using Sqrt Transformation) (ocular lesion [2]; 100 ug): 3.37% and 1.39%
V1 Lesion Size (ocular lesion [2]; 100 ug): 5.64 mm^2 and 7.7 mm^2
V3 Lesion Size (ocular lesion [2]; 100 ug): 5.98 mm^2 and 8.2 mm^2
V9 Lesion Size (ocular lesion [2]; 100 ug): 6.39 mm^2 and 8.43 mm^2
lesion area vs negative control (male rabbit NaIO3 model; 25 ug per eye IVT Day 0): significantly lower than negative control
lesion area vs negative control (male rabbit NaIO3 model; 100 ug per eye IVT Day 0): significantly lower than negative control
lesion size vs negative controls and 25 ug group (male rabbit NaIO3 model; 100 ug per eye IVT Day 0, NaIO3 challenge Day 14): significantly smaller lesion size
lesion size vs negative control animals and 25 ug group (male rabbit NaIO3 model; 100 ug per eye IVT Day 0, NaIO3 challenge Day 28): significantly smaller lesion size
mean lesion size (male rabbit NaIO3 model; across challenge time points): substantive reduction
detection in retinal tissue as well as the vitreous humor [3]: detected
detection in the vitreous humor [3]: detected
detection in the vitreous humor [4]: detected
